Publication PMC12592173, “Targeted degradation of EGFR 19Del by PROTACs suppresses tumor growth in non-small-cell lung cancer” (Frontiers in Pharmacology, 2025)
pIC50: −log10 of the molar value. Several values for one entry are separate records, joined by “and”; a condition that tells them apart may be missing. Equal entries are not always repeated. Where a SMILES comes first, the peptide text is derived from it. The star is where a group is joined. Cbz = O=C(OCc1ccccc1)*

Tests used:
EGFR^Del19 = EGFR^Del19 (Homo sapiens, UniProt P00533+Q96SW2, DEL746-750); test: Western blot of EGFR degradation in HCC827 cells; format: cell-based; design: host or cells: HCC827; conditions: for Degradation activity, in words: HCC827 (EGFR^Del19) cells; for EGFR degradation (%): HCC827, 24 h, average of two independent experiments, NA = not active; for Rescue of EGFR^Del19 reduction induced by compound 12 or 14 (competition) / Effect of inhibitor pretreatment on EGFR^Del19 degradation induced by compound 14: HCC827; for Rescue of EGFR^Del19 reduction induced by compound 12 or 14 (competition): 2 h pretreatment, 10 nM degrader 4 h; for Effect of inhibitor pretreatment on EGFR^Del19 degradation induced by compound 14: 2 μM MG132 or 5 μM MLN4924 for 2 h, then 10 nM of 14 for 8 h
Protocol: HCC827 and H1975 cell lines were purchased from ATCC (United States) and cultured according to the manuals. Cells were grown in monolayers in appropriate media supplemented with 10% fetal bovine serum and 1% antibiotic/antimycotic solution.
(§1) Cells at 70%–90% confluence were lysed in RIPA buffer with complete protease inhibitor cocktail (Roche Applied Science, Penzberg, Germany). Lysates were quantified, separated on SDS-PAGE gels, and transferred onto PVDF membranes, followed by the blockade with 5% milk in TBS+ 0.1% Tween-20 buffer for 1 h at room temperature. The following primary antibodies were used: anti-EGFR (1:50000, ABclonal Technology, Wuhan, China), anti-pEGFR (Tyr1068, […], Cell Signaling Technology, MA, United States), anti-AKT (1:10000, ABclonal Technology, Wuhan, China), anti-pAKT (1:10000, ABclonal Technology, Wuhan, China), and anti-β-actin (1:10000, ABclonal Technology, Wuhan, China). Protein bands were detected using Tanon High-signal ECL Western Blotting Substrate (Tanon Science and Technology Co., Ltd., Shanghai, China). The band density of the protein of interest was quantified using ImageJ.

HCC827 cells = test: Cell viability (CCK-8) in HCC827 cells; format: cell-based, human; conditions: for pIC50: Homo sapiens, CCK-8
Protocol: (§2) The viability of cells was determined using Cell Counting Kit-8 (CCK-8; Dojindo), and IC50 was calculated using GraphPad Prism (version 6.0). For colony formation assays, cells (1 × 10^3 cells/well) seeded in 24-well plates were treated with different concentrations of compounds and replaced with fresh media with compounds every 4 days. After 7 days, the cells were washed with PBS, fixed with methanol, and stained with 0.1% crystal violet solution.

H1299 cells = test: Cell viability (CCK-8) in H1299 cells; format: cell-based; conditions: up to 1 μM, 96 h
Protocol: as §2, with “Cells (5 × 10^3 for 48 h or 1 × 10^3 for 96 h) were seeded in 96-well plates, allowed to attach overnight, and then incubated with various concentrations of compounds for 48 h or 96 h. The” for “The”

HeLa cells = test: Cell viability (CCK-8) in HeLa cells; format: cell-based; conditions: up to 1 μM, 96 h
Protocol: as §2, with “Cells (5 × 10^3 for 48 h or 1 × 10^3 for 96 h) were seeded in 96-well plates, allowed to attach overnight, and then incubated with various concentrations of compounds for 48 h or 96 h. The” for “The”

H1975 cells = test: Cell viability (CCK-8) in H1975 cells; format: cell-based; conditions: up to 1 μM, 96 h
Protocol: as §2, with “Cells (5 × 10^3 for 48 h or 1 × 10^3 for 96 h) were seeded in 96-well plates, allowed to attach overnight, and then incubated with various concentrations of compounds for 48 h or 96 h. The” for “The”

EGFR^WT protein = EGFR^WT protein (Homo sapiens, UniProt P00533); test: Immunoblots of EGFR in H1299, H460 and HeLa cells; format: cell-based; conditions: H1299, H460 and HeLa cell lines, up to 1 μM, 24 h
Protocol: as §1

EGFR^L858R/T790M protein = target: T1, EGFR^L858R/T790M protein (Homo sapiens, UniProt P00533, L858R/T790M); test: Immunoblots of EGFR in H1975 cells; format: cell-based; conditions: H1975 cell line, up to 1 μM, 24 h
T1 construct: nor the EGFR^L858R/T790M protein in the H1975 cell line, up to 1 μM; host or cells: H1975
Protocol: as §1

pEGFR and pAKT = test: Western blot of downstream signaling in HCC827 cells; format: cell-based, human
Protocol: as §1

O=C1CCC(N2C(=O)c3ccc(OCCCCCOc4cc5ncnc(Nc6ccc(F)c(Cl)c6)c5cc4OCCCN4CCOCC4)cc3C2=O)C(=O)N1 (stereo not drawn) [Compound 1]
Degradation activity, in words (EGFR^Del19; 10 nM): no degradation effect | EGFR degradation (%) (EGFR^Del19; 10 nM): −6.6 ± 4.2%

O=C1CCC(N2C(=O)c3ccc(N4CCN(CCCC(=O)N5CCN(CCCOc6cc7ncnc(Nc8ccc(F)c(Cl)c8)c7cc6OCCCN6CCOCC6)CC5)CC4)cc3C2=O)C(=O)N1 (stereo not drawn) [Compound 9]
EGFR degradation (%) (EGFR^Del19; 10 nM): 66.3 ± 22.7%

O=C1CCC(N2C(=O)c3ccccc3C2=O)C(=O)N1 (stereo not drawn) [thalidomide, reference compound]
Influence on viability of HCC827 cells (HCC827 cells; up to 200 nM): no influence | Rescue of EGFR^Del19 reduction induced by compound 12 or 14 (competition) (EGFR^Del19; 100 times the degrader dose (1 μM)): slight decrease in EGFR^Del19 was still observed | Rescue of EGFR^Del19 reduction induced by compound 12 or 14 (competition) (EGFR^Del19; 500 times the degrader dose (5 μM)): completely rescue

COc1cc2ncnc(Nc3ccc(F)c(Cl)c3)c2cc1OCCCN1CCOCC1 [gefitinib, reference compound]
Effect on viability (H1299 cells): did not affect the viability | Effect on viability (HeLa cells): did not affect the viability | Effect on viability (H1975 cells): did not affect the viability

O=C1CCC(N2C(=O)c3ccc(N4CCN(CCCCN5CCN(CCCOc6cc7ncnc(Nc8ccc(F)c(Cl)c8)c7cc6OCCCN6CCOCC6)CC5)CC4)cc3C2=O)C(=O)N1 (stereo not drawn) [Compound 10]
EGFR degradation (%) (EGFR^Del19; 10 nM): 32.4 ± 17.1%

O=C1CCC(N2C(=O)c3ccc(N4CCN(C(=O)CCCCCCCOc5cc6ncnc(Nc7ccc(F)c(Cl)c7)c6cc5OCCCN5CCOCC5)CC4)cc3C2=O)C(=O)N1 (stereo not drawn) [Compound 6]
EGFR degradation (%) (EGFR^Del19; 10 nM): 15.0 ± 4.0%

O=C1CCC(N2C(=O)c3ccc(N4CCN(CCN5CCN(CCCOc6cc7ncnc(Nc8ccc(F)c(Cl)c8)c7cc6OCCCN6CCOCC6)CC5)CC4)cc3C2=O)C(=O)N1 (stereo not drawn) [Compound 12]
Degradation of EGFR^WT protein (EGFR^WT protein): neither compound degraded | Degradation of EGFR^L858R/T790M protein (EGFR^L858R/T790M protein): neither compound degraded | Levels of pEGFR and pAKT (pEGFR and pAKT): markedly reduced | pIC50 (HCC827 cells; HCC827, 48 h, HCC827, 48 h incubation): ~7.51 | pIC50 (HCC827 cells; HCC827, 96 h, HCC827, 96 h incubation): ~7.59 | Effect on viability (H1299 cells): did not affect the viability | Effect on viability (HeLa cells): did not affect the viability | Effect on viability (H1975 cells): did not affect the viability | EGFR degradation (%) (EGFR^Del19; 10 nM): 60.0% ± 6.9% and 60.0 ± 6.9% | Earliest time at which EGFR^Del19 degradation observed (EGFR^Del19; HCC827 cells, 10 nM): 2 h | Dmax (EGFR^Del19; HCC827 cells, 24 h, dose-response): 85.1% | DC50 (EGFR^Del19; HCC827 cells, 24 h treatment): 1.94 nM

O=C1CCC(N2C(=O)c3ccc(N4CCN(CCN5CCN(CCOc6cc7ncnc(Nc8ccc(F)c(Cl)c8)c7cc6OCCCN6CCOCC6)CC5)CC4)cc3C2=O)C(=O)N1 (stereo not drawn) [Compound 11]
EGFR degradation (%) (EGFR^Del19; 10 nM): 25.1 ± 11.2%

O=C1CCC(N2C(=O)c3ccc(OCCCCCCCCOc4cc5ncnc(Nc6ccc(F)c(Cl)c6)c5cc4OCCCN4CCOCC4)cc3C2=O)C(=O)N1 (stereo not drawn) [Compound 2]
Degradation activity, in words (EGFR^Del19; 10 nM): weak degradation activities | EGFR degradation (%) (EGFR^Del19; 10 nM): 15.3 ± 5.9%

NS(=O)(=O)OC[C@@H]1C[C@@H](n2ccc3c(N[C@H]4CCc5ccccc54)ncnc32)C[C@@H]1O [MLN4924, reference compound]
Effect of inhibitor pretreatment on EGFR^Del19 degradation induced by compound 14 (EGFR^Del19): restored

COc1cc2c(Nc3ccc(F)c(Cl)c3)ncnc2cc1OCCCN1CCN(CCN2CCN(c3ccc4c(c3)C(=O)N(C3CCC(=O)N(C)C3=O)C4=O)CC2)CC1 (stereo not drawn) [Compound 15]
Degradation activity, in words (EGFR^Del19; 10 nM): completely lost its degradation ability

O=C1CCC(N2C(=O)c3ccc(OCCCCCCCCCCCOc4cc5ncnc(Nc6ccc(F)c(Cl)c6)c5cc4OCCCN4CCOCC4)cc3C2=O)C(=O)N1 (stereo not drawn) [Compound 3]
Degradation activity, in words (EGFR^Del19; 10 nM): weak degradation activities | EGFR degradation (%) (EGFR^Del19; 10 nM): 7.0 ± 9.3%

CC(C)C[C@@H](C=O)NC(=O)[C@H](CC(C)C)NC(=O)[C@H](CC(C)C)NC(=O)OCc1ccccc1 [MG132, reference compound] (Cbz-Leu-Leu-Leu-aldehyde)
Effect of inhibitor pretreatment on EGFR^Del19 degradation induced by compound 14 (EGFR^Del19): restored

O=C1CCC(N2C(=O)c3ccc(N4CCN(CCCCCCCCCCOc5cc6ncnc(Nc7ccc(F)c(Cl)c7)c6cc5OCCCN5CCOCC5)CC4)cc3C2=O)C(=O)N1 (stereo not drawn) [Compound 7]
EGFR degradation (%) (EGFR^Del19; 10 nM): 19.4 ± 15.1%

O=C1CCC(N2C(=O)c3ccc(N4CCN(CCCN5CCN(CCOc6cc7ncnc(Nc8ccc(F)c(Cl)c8)c7cc6OCCCN6CCOCC6)CC5)CC4)cc3C2=O)C(=O)N1 (stereo not drawn) [Compound 13]
EGFR degradation (%) (EGFR^Del19; 10 nM): 16.8 ± 10.5%
